Laboratory results from patent publication EP3064205A1, “Therapeutic use of isomeric forms of 2-(4-chlorophenyl)quinolin-4-yl)(piperidin-2-yl)methanol” (Glionova AB, priority 2015, dated 2016).
pIC50: −log10 of the molar value. Where two headings read alike, the source gives them in different places.

How the values were obtained:
Test in all cases: 3D clonogenic assay (PDX)
Format in all cases: cell-based, human
CXF 1729 = conditions: CXF 1729, Colorectal; for pIC50: Homo sapiens
Outline: (§1)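 Tumor xenografts are dissociated with a collagenase/DNase/hyaluronidase/dispase cocktail, and the cells are frozen, then thawed and embedded in 0.4% agar over a 0.75% agar base. Compound is added at day 1 and left on continuously for 8–13 days. IC50 is taken as the curve inflection point or as the concentration at T/C = 50%.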

CXF 2025 = conditions: CXF 2025, Colorectal; for pIC50: Homo sapiens
Outline: as §1

CXF 243 = conditions: CXF 243, Colorectal; for pIC50: Homo sapiens
Outline: as §1

CXF 280 = conditions: CXF 280, Colorectal; for pIC50: Homo sapiens
Outline: as §1

CXF 742 = conditions: CXF 742, Colorectal; for pIC50: Homo sapiens
Outline: as §1

GXF 1172 = conditions: GXF 1172, Gastric; for pIC50: Homo sapiens
Outline: as §1

LXFA 1647 = conditions: LXFA 1647, Lung Adeno; for pIC50: Homo sapiens
Outline: as §1

LXFA 923 = conditions: LXFA 923, Lung Adeno; for pIC50: Homo sapiens
Outline: as §1

LXFL 529 = conditions: LXFL 529, Lung Large Cell; for pIC50: Homo sapiens
Outline: as §1

PAXF 1900 = conditions: PAXF 1900, Pancreas; for pIC50: Homo sapiens
Outline: as §1

PAXF 2033 = conditions: PAXF 2033, Pancreas; for pIC50: Homo sapiens
Outline: as §1

PAXF 2116 = conditions: PAXF 2116, Pancreas; for pIC50: Homo sapiens
Outline: as §1

## O[C@H](c1cc(-c2ccc(Cl)cc2)nc2ccccc12)[C@@H]1CCCCN1 [S1, (R)-(2-(4-chlorophenyl)quinolin-4-yl)((S)-piperidin-2-yl)methanol]
CXF 1729
  b (bottom plateau of concentration-effect curve): 8
  t (top plateau of concentration-effect curve): 104
CXF 1729; read-out: abs. IC50
  pIC50: 5.05
CXF 1729; read-out: rel. IC50
  pIC50: 5.05
CXF 2025
  b (bottom plateau of concentration-effect curve): 33
  t (top plateau of concentration-effect curve): 97
CXF 2025; read-out: abs. IC50
  pIC50: 5.05
CXF 2025; read-out: rel. IC50
  pIC50: 5.06
CXF 243
  b (bottom plateau of concentration-effect curve): 46
  t (top plateau of concentration-effect curve): 102
CXF 243; read-out: abs. IC50
  pIC50: 5.04
CXF 243; read-out: rel. IC50
  pIC50: 5.06
CXF 280
  b (bottom plateau of concentration-effect curve): 5
  t (top plateau of concentration-effect curve): 101
CXF 280; read-out: abs. IC50
  pIC50: 5.06
CXF 280; read-out: rel. IC50
  pIC50: 5.06
CXF 742
  b (bottom plateau of concentration-effect curve): 0
  t (top plateau of concentration-effect curve): 100
CXF 742; read-out: abs. IC50
  pIC50: 4.38
CXF 742; read-out: rel. IC50
  pIC50: 4.38
GXF 1172
  b (bottom plateau of concentration-effect curve): 28
  t (top plateau of concentration-effect curve): 79
GXF 1172; read-out: abs. IC50
  pIC50: 4.89
GXF 1172; read-out: rel. IC50
  pIC50: 4.90
LXFA 1647; read-out: abs. IC50
  pIC50: 4.92
LXFA 1647; read-out: rel. IC50
  pIC50: 4.92
LXFA 1647
  b (bottom plateau of concentration-effect curve): 13
  t (top plateau of concentration-effect curve): 98
LXFA 923; read-out: abs. IC50
  pIC50: 5.07
LXFA 923; read-out: rel. IC50
  pIC50: 5.07
LXFA 923
  b (bottom plateau of concentration-effect curve): 21
  t (top plateau of concentration-effect curve): 101
LXFL 529; read-out: abs. IC50
  pIC50: 4.98
LXFL 529; read-out: rel. IC50
  pIC50: 5.00
LXFL 529
  b (bottom plateau of concentration-effect curve): 11
  t (top plateau of concentration-effect curve): 92
PAXF 1900; read-out: abs. IC50
  pIC50: 4.88
PAXF 1900; read-out: rel. IC50
  pIC50: 4.91
PAXF 1900
  b (bottom plateau of concentration-effect curve): 33
  t (top plateau of concentration-effect curve): 114
PAXF 2033; read-out: abs. IC50
  pIC50: 5.04
PAXF 2033; read-out: rel. IC50
  pIC50: 5.05
PAXF 2033
  b (bottom plateau of concentration-effect curve): 27
  t (top plateau of concentration-effect curve): 110
PAXF 2116; read-out: abs. IC50
  pIC50: 5.04
PAXF 2116; read-out: rel. IC50
  pIC50: 5.05
PAXF 2116
  b (bottom plateau of concentration-effect curve): 32
  t (top plateau of concentration-effect curve): 112
